Test results as given in patent publication US20050074810A1, “Method for non-invasilvely determining the relative levels of two biological substances” (priority 2001, published 2005).

Tests used:
[1] = in vivo, 4 mA for 5 minutes, 4.5 cm^2, lithium nitrate electrolyte; cited from earlier work
[2] = In vitro reverse iontophoretic extraction of mannitol and sodium (Example 3, first experiment); conditions: pig, pH 7.4
Description: The anode was placed in the sub-dermal, “donor” chamber, which contained a physiological pH 7.4 buffer (25 mM Tris/TrisHCl+133 mM NaCl) to which the analyte mannitol was added.
In a first experiment, mannitol concentration was 5 mM for the first three hours of experiment and was then increased to 10 mM for a subsequent period of three hours.
(§1) To facilitate the analytical chemistry, the donor solutions were spiked with ^14C-labeled mannitol.
The cathodal (collection) chamber, which contacted the outer surface of the skin contained a 25 mM Tris/TrisHCl buffer at pH 7.4.
(§2) During the first 3-hour period, the entire content of the cathode solution was withdrawn every 60 minutes and the chamber was refilled with fresh buffer.
During the second 3-hour period, the 5 mM mannitol donor solution was replaced with 10 mM mannitol, and the cathodal chamber was then sampled every 30 minutes.

[3] = In vitro reverse iontophoretic extraction of glucose, mannitol and sodium (Example 6); type: in vitro ADME, pig
Description: To facilitate the analytical chemistry, the donor solutions were spiked with tritiated glucose and ^14C-labeled mannitol.
(§3) The cathodal (collection) chamber, which contacted the outer surface of the skin, contained a 25 mM Tris/TrisHCl buffer at pH 7.4.
The experimental design was identical to that in FIG. 11, with the exception that both tritiated glucose and ^14C-labeled mannitol were present in the ‘donor’ anode chamber.
During this period, the entire content of the cathode solution was withdrawn every 60 minutes and the chamber was refilled with fresh buffer.

[4] = In vitro reverse iontophoretic extraction of mannitol and sodium (Example 3, second experiment); conditions: pig; for Extracted (mannitol/Na^+) flux (×10^3) ratio / Mannitol flux: pH 7.4
Description: In a second experiment, performed under identical conditions to the first (see FIG. 11), mannitol concentration was 5 mM for the first three hours of experiment, it was then reduced to 3 mM for a subsequent period of one hour and then increased to 10 mM for a subsequent period of one hour.
as §2
During the second 1-hour period, the 5 mM mannitol donor solution was replaced with 3 mM mannitol, and the cathodal chamber was then sampled every 30 minutes.
During the third 1-hour period, the 3 mM mannitol donor solution was replaced with 10 mM mannitol, and the cathodal chamber was then sampled every 30 minutes.

[5] = In vitro reverse iontophoretic extraction of mannitol and sodium with varied sodium level (Example 4); conditions: pig, pH 7.4
Description: The anode was placed in the sub-dermal, “donor” chamber, which contained a physiological pH 7.4 buffer (25 mM Tris/TrisHCl+4 mM KCl).
Both the concentration of the analyte of interest and the internal standard were modified during the experiment.
as §1, §3, §2
During the final 1-hour period, the donor solution was replaced with 5 mM mannitol/ 133 mM NaCl, and the cathodal chamber was then sampled every 30 minutes.

[K+] [K^+, potassium]
Concentration in the cathode chamber after current passage [1]: about 14 μEq/L

OC[C@@H](O)[C@@H](O)[C@H](O)[C@H](O)CO [Mannitol, mannitol]
Extracted (mannitol/Na^+) flux (×10^3) ratio ([2]; 60 min, 5 mM): 1.7 ± 0.8 ×10^3
Mannitol flux ([2]; 60 min, 5 mM): 13.3 ± 7.6 nmol · h^−1 · cm^−2
Extracted (mannitol/Na^+) flux (×10^3) ratio ([2]; 120 min, 5 mM): 2.2 ± 0.3 ×10^3
Mannitol flux ([2]; 120 min, 5 mM): 21.0 ± 4.7 nmol · h^−1 · cm^−2
Extracted (mannitol/Na^+) flux (×10^3) ratio ([2]; 180 min, 5 mM): 2.5 ± 0.3 ×10^3
Mannitol flux ([2]; 180 min, 5 mM): 25.2 ± 4.3 nmol · h^−1 · cm^−2
Extracted (mannitol/Na^+) flux (×10^3) ratio ([2]; 210 min, 10 mM): 5.0 ± 0.2 ×10^3
Mannitol flux ([2]; 210 min, 10 mM): 52.2 ± 4.4 nmol · h^−1 · cm^−2
Extracted (mannitol/Na^+) flux (×10^3) ratio ([2]; 240 min, 10 mM): 5.1 ± 0.5 ×10^3
Mannitol flux ([2]; 240 min, 10 mM): 53.2 ± 7.7 nmol · h^−1 · cm^−2
Extracted (mannitol/Na^+) flux (×10^3) ratio ([2]; 270 min, 10 mM): 5.2 ± 0.5 ×10^3
Mannitol flux ([2]; 270 min, 10 mM): 54.1 ± 6.8 nmol · h^−1 · cm^−2
Extracted (mannitol/Na^+) flux (×10^3) ratio ([2]; 300 min, 10 mM): 5.5 ± 0.3 ×10^3
Mannitol flux ([2]; 300 min, 10 mM): 58.1 ± 4.5 nmol · h^−1 · cm^−2
Extracted (mannitol/Na^+) flux (×10^3) ratio ([2]; 330 min, 10 mM): 5.7 ± 0.4 ×10^3
Mannitol flux ([2]; 330 min, 10 mM): 60.9 ± 6.8 nmol · h^−1 · cm^−2
Extracted (mannitol/Na^+) flux (×10^3) ratio ([2]; 360 min, 10 mM): 6.0 ± 0.3 ×10^3
Mannitol flux ([2]; 360 min, 10 mM): 63.2 ± 6.2 nmol · h^−1 · cm^−2
Extracted flux ratio (10^3×) relative to Na^+ ([3]; Experiment A: subdermal glucose 3 mM, mannitol 7 mM, 60 min): 2.01 ± 0.33 10^3×
Extracted flux ratio (10^3×) relative to Na^+ ([3]; Experiment A: subdermal glucose 3 mM, mannitol 7 mM, 120 min): 3.21 ± 0.21 10^3×
Extracted flux ratio (10^3×) relative to Na^+ ([3]; Experiment A: subdermal glucose 3 mM, mannitol 7 mM, 180 min): 3.64 ± 0.31 10^3×
Extracted flux ratio (10^3×) relative to Na^+ ([3]; Experiment A: subdermal glucose 3 mM, mannitol 7 mM, 240 min): 3.98 ± 0.24 10^3×
Extracted flux ratio (10^3×) relative to Na^+ ([3]; Experiment A: subdermal glucose 3 mM, mannitol 7 mM, 300 min): 4.29 ± 0.40 10^3×
Extracted flux ratio (10^3×) relative to Na^+ ([3]; Experiment A: subdermal glucose 3 mM, mannitol 7 mM, 360 min): 4.65 ± 0.26 10^3×
Extracted flux ratio (10^3×) relative to Na^+ ([3]; Experiment B: subdermal glucose 5 mM, mannitol 5 mM, 60 min): 1.29 ± 0.58 10^3×
Extracted flux ratio (10^3×) relative to Na^+ ([3]; Experiment B: subdermal glucose 5 mM, mannitol 5 mM, 120 min): 2.13 ± 0.47 10^3×
Extracted flux ratio (10^3×) relative to Na^+ ([3]; Experiment B: subdermal glucose 5 mM, mannitol 5 mM, 180 min): 2.53 ± 0.41 10^3×
Extracted flux ratio (10^3×) relative to Na^+ ([3]; Experiment B: subdermal glucose 5 mM, mannitol 5 mM, 240 min): 2.73 ± 0.38 10^3×
Extracted flux ratio (10^3×) relative to Na^+ ([3]; Experiment B: subdermal glucose 5 mM, mannitol 5 mM, 300 min): 2.98 ± 0.41 10^3×
Extracted flux ratio (10^3×) relative to Na^+ ([3]; Experiment B: subdermal glucose 5 mM, mannitol 5 mM, 360 min): 3.15 ± 0.30 10^3×
Extracted flux ratio (10^3×) relative to Na^+ ([3]; Experiment C: subdermal glucose 7 mM, mannitol 3 mM, 60 min): 0.86 ± 0.45 10^3×
Extracted flux ratio (10^3×) relative to Na^+ ([3]; Experiment C: subdermal glucose 7 mM, mannitol 3 mM, 120 min): 1.38 ± 0.46 10^3×
Extracted flux ratio (10^3×) relative to Na^+ ([3]; Experiment C: subdermal glucose 7 mM, mannitol 3 mM, 180 min): 1.62 ± 0.44 10^3×
Extracted flux ratio (10^3×) relative to Na^+ ([3]; Experiment C: subdermal glucose 7 mM, mannitol 3 mM, 240 min): 1.71 ± 0.39 10^3×
Extracted flux ratio (10^3×) relative to Na^+ ([3]; Experiment C: subdermal glucose 7 mM, mannitol 3 mM, 300 min): 1.83 ± 0.40 10^3×
Extracted flux ratio (10^3×) relative to Na^+ ([3]; Experiment C: subdermal glucose 7 mM, mannitol 3 mM, 360 min): 1.94 ± 0.36 10^3×
K (analyte/Na^+ extraction ratio vs sub-dermal concentration ratio, slope of FIG. 22b) ([3]; iontophoresis of 6 hours at 0.5 mA/cm^2): 0.078
K′ (analyte/Na^+ extraction ratio vs analyte sub-dermal concentration, slope of FIG. 22a) ([3]; iontophoresis of 6 hours at 0.5 mA/cm^2, Na^+ fixed 133 mM): 0.586×10^−3
K (Qmann/QNa^+=K.[mann]/[Na^+], slope of FIG. 15b) [4]: 0.07
Extracted (mannitol/Na^+) flux (×10^3) ratio ([4]; 60 min, 5 mM): 1.52 ± 0.4 ×10^3
Mannitol flux ([4]; 60 min, 5 mM): 13.5 ± 4.1 nmol · h^−1 · cm^−2
Extracted (mannitol/Na^+) flux (×10^3) ratio ([4]; 120 min, 5 mM): 2.5 ± 0.3 ×10^3
Mannitol flux ([4]; 120 min, 5 mM): 25.8 ± 4.8 nmol · h^−1 · cm^−2
Extracted (mannitol/Na^+) flux (×10^3) ratio ([4]; 180 min, 5 mM): 2.7 ± 0.3 ×10^3
Mannitol flux ([4]; 180 min, 5 mM): 27.8 ± 4.4 nmol · h^−1 · cm^−2
Extracted (mannitol/Na^+) flux (×10^3) ratio ([4]; 210 min, 3 mM): 1.5 ± 0.2 ×10^3
Mannitol flux ([4]; 210 min, 3 mM): 16.6 ± 3.2 nmol · h^−1 · cm^−2
Extracted (mannitol/Na^+) flux (×10^3) ratio ([4]; 240 min, 3 mM): 1.5 ± 0.5 ×10^3
Mannitol flux ([4]; 240 min, 3 mM): 14.1 ± 2.8 nmol · h^−1 · cm^−2
Extracted (mannitol/Na^+) flux (×10^3) ratio ([4]; 270 min, 10 mM): 5.2 ± 0.5 ×10^3
Mannitol flux ([4]; 270 min, 10 mM): 49.6 ± 8.4 nmol · h^−1 · cm^−2
Extracted (mannitol/Na^+) flux (×10^3) ratio ([4]; 300 min, 10 mM): 5.2 ± 0.7 ×10^3
Mannitol flux ([4]; 300 min, 10 mM): 48.1 ± 8.7 nmol · h^−1 · cm^−2
Extracted (mannitol/Na^+) flux (×10^3) ratio ([5]; 60 min, 5 mM): 1.2 ± 0.2 ×10^3
Mannitol flux ([5]; 60 min, 5 mM): 9.7 ± 1.5 nmol · h^−1 · cm^−2
Extracted (mannitol/Na^+) flux (×10^3) ratio ([5]; 120 min, 5 mM): 2.1 ± 0.1 ×10^3
Mannitol flux ([5]; 120 min, 5 mM): 22.0 ± 1.6 nmol · h^−1 · cm^−2
Extracted (mannitol/Na^+) flux (×10^3) ratio ([5]; 180 min, 5 mM): 2.6 ± 0.1 ×10^3
Mannitol flux ([5]; 180 min, 5 mM): 28.8 ± 1.3 nmol · h^−1 · cm^−2
Extracted (mannitol/Na^+) flux (×10^3) ratio ([5]; 270 min, 3 mM): 1.6 ± 0.1 ×10^3
Mannitol flux ([5]; 270 min, 3 mM): 15.9 ± 0.7 nmol · h^−1 · cm^−2
Extracted (mannitol/Na^+) flux (×10^3) ratio ([5]; 300 min, 3 mM): 1.4 ± 0.1 ×10^3
Mannitol flux ([5]; 300 min, 3 mM): 15.3 ± 0.7 nmol · h^−1 · cm^−2
Extracted (mannitol/Na^+) flux (×10^3) ratio ([5]; 330 min, 5 mM): 2.7 ± 0.1 ×10^3
Mannitol flux ([5]; 330 min, 5 mM): 29.0 ± 0.8 nmol · h^−1 · cm^−2
Extracted (mannitol/Na^+) flux (×10^3) ratio ([5]; 360 min, 5 mM): 2.6 ± 0.1 ×10^3
Mannitol flux ([5]; 360 min, 5 mM): 29.3 ± 0.6 nmol · h^−1 · cm^−2
